The text below walks through data of patent US20200339604A1, “PYRAZOLOPYRIMIDINE COMPOUNDS AS JAK INHIBITORS” (Genentech, Inc., priority 2018, published 2020).

In assay [1] the target is T1, isolated recombinant JAK1 kinase domain (Homo sapiens, UniProt P23458).
T1 construct: isolated recombinant JAK1 and JAK2 kinase domain
The experiment in a line: JAK enzyme assay, JAK1 kinase domain (Caliper LabChip). It is filed as biochemical. Particulars: 1.5 nM JAK1, ATP 25 μM, Morrison tight binding model. The procedure:
(§1) JAK Enzyme Assays were Carried Out as Follows:
(§2) The activity of the isolated recombinant JAK1 and JAK2 kinase domain was measured by monitoring phosphorylation of a peptide derived from JAK3 ([…] fluorescently labeled on the N-terminus with 5-carboxyfluorescein) using the Caliper LabChip® technology (Caliper Life Sciences, Hopkinton, Mass.). To determine inhibition constants (K), compounds were diluted serially in DMSO and added to 50 μL kinase reactions containing purified enzyme (1.5 nM JAK1, or 0.2 nM JAK2), 100 mM HEPES buffer (pH 7.2), 0.015% Brij-35, 1.5 μM peptide substrate, ATP (25 μM), 10 mM MgCl2, 4 mM DTT at a final DMSO concentration of 2%.
(§3) Reactions were incubated at 22° C. in 384-well polypropylene microtiter plates for 30 minutes and then stopped by addition of 25 µL of an EDTA containing solution (100 mM HEPES buffer (pH 7.2), 0.015% Brij-35, 150 mM EDTA), resulting in a final EDTA concentration of 50 mM. After termination of the kinase reaction, the proportion of phosphorylated product was determined as a fraction of total peptide substrate using the Caliper LabChip® 3000 according to the manufacturer's specifications. K values were then determined using the Morrison tight binding model (Morrison, J. F., Biochim. Biophys. Acta. 185:269-296 (1969); William, J. W. and Morrison, J. F., Meth. Enzymol., 63:437-467 (1979)) modified for ATP-competitive inhibition [Ki=Ki, app/(1+[ATP]/Km,app)].

Assay [2] deals with T2, isolated recombinant JAK2 kinase domain (Homo sapiens, UniProt O60674).
T2 construct: isolated recombinant JAK1 and JAK2 kinase domain
The assay can be described thus: JAK enzyme assay, JAK2 kinase domain (Caliper LabChip). The assay is classed as biochemical. Particulars: 0.2 nM JAK2, ATP 25 μM, Morrison tight binding model. The procedure: as §1, §2, §3

Molecules are shown by their SMILES.

T1 sequence (P23458 875-1153 limits assumed): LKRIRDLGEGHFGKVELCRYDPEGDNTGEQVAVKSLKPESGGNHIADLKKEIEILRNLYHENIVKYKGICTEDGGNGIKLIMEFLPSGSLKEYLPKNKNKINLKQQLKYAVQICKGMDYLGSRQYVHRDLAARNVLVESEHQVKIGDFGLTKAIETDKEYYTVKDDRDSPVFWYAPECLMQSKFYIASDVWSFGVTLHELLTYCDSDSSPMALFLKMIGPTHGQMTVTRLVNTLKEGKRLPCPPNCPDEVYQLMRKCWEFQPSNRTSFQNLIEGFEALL
T2 sequence (O60674 849-1124 limits assumed): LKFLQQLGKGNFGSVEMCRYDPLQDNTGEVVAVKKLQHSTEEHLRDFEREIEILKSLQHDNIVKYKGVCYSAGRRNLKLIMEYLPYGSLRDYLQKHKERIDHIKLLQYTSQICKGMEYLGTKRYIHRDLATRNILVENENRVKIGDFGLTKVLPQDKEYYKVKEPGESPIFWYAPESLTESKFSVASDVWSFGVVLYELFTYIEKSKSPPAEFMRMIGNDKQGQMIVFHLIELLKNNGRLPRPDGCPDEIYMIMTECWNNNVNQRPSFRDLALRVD

Usually Ki stands for a measure of affinity in units of concentration, obtained from inhibition or displacement. For `CN1CCC(n2cc(NC(=O)c3cnn4cccnc34)c(-c3cc4c(cc3OC(F)F)NCCS4)n2)C1=O` (single isomer, unassigned) [Example 12], the results for the Ki in assay [1] and in assay [2] were 0.15 nM and 0.11 nM, respectively.
The matching figures for `O=C(Nc1cn(C2CCN(CCN3CCOCC3)C2=O)nc1-c1cc(Cl)ccc1OC(F)F)c1cnn2cccnc12` (single isomer, unassigned) [Example 15, N-[3-[5-chloro-2-(difluoromethoxy)phenyl]-1-[1-(2-morpholinoethyl)-2-oxo-pyrrolidin-3-yl]pyrazol-4-yl]pyrazolo[1,5-a]pyrimidine-3-carboxamide]: 4.4 nM and 1 nM.
On to `O=C(Nc1cn(C2CCOC2=O)nc1-c1cc2c(cc1OC(F)F)NCCS2)c1cnn2cccnc12` (single isomer, unassigned) [Example 33, N-[3-[6-(difluoromethoxy)-3,4-dihydro-2H-1,4-benzothiazin-7-yl]-1-(2-oxotetrahydrofuran-3-yl)pyrazol-4-yl]pyrazolo[1,5-a]pyrimidine-3-carboxamide], for which the Ki came out at 0.17 nM in assay [1] and 0.095 nM in assay [2].
As for `O=C(Nc1cn(C2CCOC2=O)nc1-c1cc2c(cc1OC(F)F)NCCS2)c1cnn2cccnc12` (single isomer, unassigned) [Example 34, N-[3-[6-(difluoromethoxy)-3,4-dihydro-2H-1,4-benzothiazin-7-yl]-1-(2-oxotetrahydrofuran-3-yl)pyrazol-4-yl]pyrazolo[1,5-a]pyrimidine-3-carboxamide], the results for the Ki in assay [1] and in assay [2] were 0.092 nM and 0.056 nM, respectively.
The matching figures for `O=C(Nc1cn(C2CCOC2=O)nc1-c1cc2c(cc1OC(F)F)NCCO2)c1cnn2cccnc12` (single isomer, unassigned) [Example 38, N-[3-[6-(difluoromethoxy)-3,4-dihydro-2H-1,4-benzoxazin-7-yl]-1-(2-oxotetrahydrofuran-3-yl)pyrazol-4-yl]pyrazolo[1,5-a]pyrimidine-3-carboxamide]: 0.6 nM and 0.42 nM.
With `O=C(Nc1cn(C2CCOC2=O)nc1-c1cc2c(cc1OC(F)F)NCCO2)c1cnn2cccnc12` (single isomer, unassigned) [Example 39, N-[3-[6-(difluoromethoxy)-3,4-dihydro-2H-1,4-benzoxazin-7-yl]-1-(2-oxotetrahydrofuran-3-yl)pyrazol-4-yl]pyrazolo[1,5-a]pyrimidine-3-carboxamide; formic acid], the results for the Ki in assay [1] and in assay [2] were 0.32 nM and 0.29 nM, respectively.
